Where two headings read alike, the source gives them in different places.
What was measured:
[1] = target: NR1-1a/NR2B receptors (Homo sapiens, UniProt Q05586+Q13224); assay: Two electrode voltage clamp of Xenopus oocytes expressing NR1-1a and NR2B NMDA receptor subunits; inhibition of glutamate/glycine current at pH 6.9 and 7.6; format: cell-based; conditions: for Fold increase in potency between pH 7.6 and 6.9: IC50 at pH 7.6/IC50 at pH 6.9
Method: Current recordings were obtained using two electrode voltage clamp of Xenopus oocytes injected with cRNA encoding the NR1-1a and NR2B NMDA receptor subunits. Cells were injected with 5-15 ng of cRNA encoding NR1-1a in combination with a 2-3 fold greater amount of either NR2B cRNA. Injected oocytes were maintained at 17° C. in Barths solution containing penicillin (10 U/ml) and streptomycin (10 μg/ml) for 2-6 days, after which recordings were made at room temperature from oocytes continuously perfused in a standard frog Ringers solution. This solution was composed of (in mM): 90 NaCl, 1.0 KCl, 10 Hepes and 0.5 BaCl2. Recording pipettes were filled with 0.3M KCl. Saturating concentrations of glutamate (20-50 μM) and glycine (20 μM) were used to activate the receptor. Drugs were prepared daily from frozen stock solutions in DMSO. Glutamate/glycine-activated currents were typically elicited from a holding potential of −20 to −40 mV. Current signals were digitized and analyzed using custom acquisition software. To study the effects of pH, oocytes were perfused with Ringer's solution at the desired pH until a stable baseline had been reached before subsequent agonist application.
Oocytes in which the glutamate/glycine current was not stable or in which the baseline holding current drifted were discarded. Inhibition of the glutamate/glycine current by drugs was examined by applying 1-4 different concentrations of the antagonist to each oocyte. […] On average recordings were made from 14 oocytes per condition.

[2] = test system: Male Sprague-Dawley rats; assay: Maximal electroshock seizures, duration of tonic hindlimb extension (THE); format: in vivo; conditions: for THE in drug (% control): rat, mean ± sem; for Anticonvulsive effects: rat maximal electroshock, summary in words
Text: Methods: Male Sprague-Dawley rats weighing less than 150 gm were used for these experiments. Maximal electroshock seizures were produced by delivering 200 ms biphasic square-wave pulses of 200 mA at 60 Hz via corneal electrodes, using a Wahlquist Constant Current Source (Salt Lake City, Utah). A drop of 0.9% lidocaine in saline was applied to each cornea 30 s before stimulus delivery to minimize pain. Automatic timers recorded the durations of tonic hindlimb flexion, tonic hindlimb extension (THE), clonus and flaccidity that sequentially followed stimulus delivery. The duration of THE was used as an index of seizure severity. Animals were stimulated on three consecutive days, referred to as “control”, “test”, and “recovery”. […] On “test” day, each animal received either vehicle or drug at varying intervals prior to stimulation. Reversibility of drug effect on THE was ascertained by response to stimulation administered one day after the “test” session. The values shown in the table are the mean (±sem) THE duration in the test condition, as a percentage of the mean of control and recovery conditions. Four rats were used for each time point.
P<0.001 for difference from vehicle by one-way ANOVA with Dunnett's post hoc test. For all other conditions P>0.05.

[3] = Table B, pH 6.9, NR1-1a/NR2B in Xenopus oocytes, read-out: IC50 at pH 6.9
[4] = Table A, pH 6.9, NR1-1a/NR2B in Xenopus oocytes, read-out: IC50 at pH 6.9
[5] = 30 mg/kg, 15 min from drug injection to electroshock
[6] = 30 mg/kg, 30 min from drug injection to electroshock
[7] = 30 mg/kg, 60 min from drug injection to electroshock
[8] = Table D, pH 6.9, NR1-1a/NR2B in Xenopus oocytes, read-out: IC50 at pH 6.9

Chain of NR1-1a/NR2B receptors (Q13224 27-1484, other chains not shown): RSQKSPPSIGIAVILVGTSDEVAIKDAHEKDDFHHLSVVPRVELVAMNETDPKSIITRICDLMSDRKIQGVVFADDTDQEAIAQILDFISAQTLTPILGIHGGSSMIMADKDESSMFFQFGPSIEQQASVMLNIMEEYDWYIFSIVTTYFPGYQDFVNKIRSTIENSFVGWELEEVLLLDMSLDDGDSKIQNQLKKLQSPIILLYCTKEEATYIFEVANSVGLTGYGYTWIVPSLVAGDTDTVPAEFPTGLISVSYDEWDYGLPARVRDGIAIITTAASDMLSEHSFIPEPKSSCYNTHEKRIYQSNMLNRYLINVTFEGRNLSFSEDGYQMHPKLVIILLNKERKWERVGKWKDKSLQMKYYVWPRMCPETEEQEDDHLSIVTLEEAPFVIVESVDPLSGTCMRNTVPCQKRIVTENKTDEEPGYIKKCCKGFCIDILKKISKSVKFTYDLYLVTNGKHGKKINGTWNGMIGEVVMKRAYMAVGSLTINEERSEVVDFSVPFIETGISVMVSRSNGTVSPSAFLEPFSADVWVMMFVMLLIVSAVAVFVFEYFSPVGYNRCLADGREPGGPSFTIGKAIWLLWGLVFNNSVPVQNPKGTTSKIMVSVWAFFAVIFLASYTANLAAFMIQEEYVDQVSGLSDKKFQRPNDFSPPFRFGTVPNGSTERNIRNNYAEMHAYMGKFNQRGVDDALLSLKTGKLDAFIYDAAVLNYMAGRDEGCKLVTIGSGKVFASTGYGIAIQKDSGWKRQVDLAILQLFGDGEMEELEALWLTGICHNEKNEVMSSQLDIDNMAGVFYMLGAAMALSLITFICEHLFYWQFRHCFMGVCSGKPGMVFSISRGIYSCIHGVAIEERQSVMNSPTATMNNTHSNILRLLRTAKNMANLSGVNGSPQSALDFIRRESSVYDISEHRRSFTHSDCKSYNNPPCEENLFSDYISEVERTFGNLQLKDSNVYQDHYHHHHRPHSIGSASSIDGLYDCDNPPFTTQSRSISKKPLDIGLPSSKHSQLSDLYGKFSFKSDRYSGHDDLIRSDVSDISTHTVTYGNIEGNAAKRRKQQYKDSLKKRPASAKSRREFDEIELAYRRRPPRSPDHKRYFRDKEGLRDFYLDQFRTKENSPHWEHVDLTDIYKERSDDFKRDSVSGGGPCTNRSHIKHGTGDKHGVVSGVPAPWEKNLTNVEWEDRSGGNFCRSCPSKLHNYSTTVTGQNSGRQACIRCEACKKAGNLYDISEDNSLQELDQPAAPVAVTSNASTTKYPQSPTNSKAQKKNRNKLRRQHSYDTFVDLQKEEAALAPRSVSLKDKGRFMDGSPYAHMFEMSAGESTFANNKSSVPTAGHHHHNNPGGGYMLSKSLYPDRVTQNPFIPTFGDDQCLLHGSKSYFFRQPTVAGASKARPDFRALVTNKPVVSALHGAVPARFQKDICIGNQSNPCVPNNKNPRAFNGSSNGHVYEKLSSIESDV

C[C@@H](CN1CCC(Cc2ccccc2)CC1)[C@@H](O)c1ccc(O)cc1 [Ro256981, reference compound]
Fold increase in potency between pH 7.6 and 6.9 ([1]; Table B): 0.444
IC50 [1, 3]: 18 nM

CS(=O)(=O)Nc1ccc(OC[C@@H](O)CN(CCc2ccc(Cl)c(Cl)c2)Cc2cccc(F)c2)cc1 [93-34 (S), (S)-1-(4-Methanesulphonamidephenoxy)-3-(N-(3-fluorobenzyl)-3,4-dichlorophenylethylamino)-2-propanol]
Fold increase in potency between pH 7.6 and 6.9 ([1]; Table B): 4.62
IC50 [1, 3]: 210 nM

CCCN(CCc1ccc(Cl)c(Cl)c1)C[C@H](O)COc1ccc(NS(C)(=O)=O)cc1 [93-6 (S), (S)-1-(4-Methanesulphonamidephenoxy)3-(N-propyl-3,4-dichloro-phenylethylamino)-2-propanol]
Fold increase in potency between pH 7.6 and 6.9 ([1]; Table A): 6.54
IC50 [1, 4]: 111 nM
Fold increase in potency between pH 7.6 and 6.9 ([1]; Table C): 6.54

CS(=O)(=O)Nc1ccc(OCC2CN(CCc3ccc(Cl)c(Cl)c3)C(=O)O2)cc1 [93-27 (S), N-(3,4-dichlorophenyl)ethyl-5-(4-methanesulphonamidophenoxy) methyl-oxazolidine-2-one]
Fold increase in potency between pH 7.6 and 6.9 ([1]; Table B): 0.95
IC50 [1, 3]: 338 nM
Fold increase in potency between pH 7.6 and 6.9 ([1]; Table C): 0.954
THE in drug (% control) [2, 5]: 97.0 ± 0.6 % control
THE in drug (% control) [2, 6]: 95.6 ± 1.3 % control
THE in drug (% control) [2, 7]: 89.7 ± 0.8 % control

CS(=O)(=O)Nc1ccc(OC[C@@H](O)CN(CCc2ccc(Cl)c(Cl)c2)Cc2ccc(F)cc2)cc1 [93-33 (S), (S)-1-(4-Methanesulphonamidephenoxy)-3-(N-(4-fluorobenzyl)-3,4-dichlorophenylethylamino)-2-propanol]
Fold increase in potency between pH 7.6 and 6.9 ([1]; Table B): 0.810
IC50 [1, 3]: 520 nM

CS(=O)(=O)Nc1ccc(OC[C@@H](O)CN(CCO)CCc2ccc(Cl)c(Cl)c2)cc1 [93-8 (S), (S)-1-(4-methanesulphonamidephenoxy)-e-(N-(2-hydroxyethyl)-3,4-dichlorophenylethylamino)-2-propanol]
Fold increase in potency between pH 7.6 and 6.9 ([1]; Table A): 11.3
IC50 [1, 4]: 29 nM
Fold increase in potency between pH 7.6 and 6.9 ([1]; Table C): 11.3
Anticonvulsive effects [2]: Anticonvulsive effects
THE in drug (% control) [2, 5]: 91.9 ± 0.4 % control
THE in drug (% control) [2, 6]: 85.7 ± 2.8 % control
THE in drug (% control) [2, 7]: 59.3 ± 4.1 % control

OC(CNCCc1ccc(Cl)c(Cl)c1)COc1ccc(OC(F)(F)F)cc1 (racemic) [Compound 93-16]
Fold increase in potency between pH 7.6 and 6.9 ([1]; Table D): 4.82
IC50 [1, 8]: 11200 nM

O=S(=O)(Nc1ccc(OCC(O)CNCCc2ccc(Cl)c(Cl)c2)cc1)c1ccccc1 [93-29 (S), 1-(4-benzenesulphonamidophenoxy)-3-(3,4-dichloro-phenylethyl-amino)-2-propanol]
IC50 [1]: 1160 nM
Fold increase in potency between pH 7.6 and 6.9 ([1]; Table A): 18.0
Fold increase in potency between pH 7.6 and 6.9 ([1]; Table D): 18.02

CN(CCc1ccc(Cl)c(Cl)c1)C[C@H](O)COc1ccc(NS(C)(=O)=O)cc1 [93-2 (S), (S)-1-(4-Methanesulphonamidephenoxy)3-(N-methyl-3,4-dichloro-phenylethylamino)-2-propanol]
Fold increase in potency between pH 7.6 and 6.9 ([1]; Table A): 5.87
IC50 [1, 4]: 63 nM
Fold increase in potency between pH 7.6 and 6.9 ([1]; Table C): 5.87

CCCCN(CCc1ccc(Cl)c(Cl)c1)C[C@H](O)COc1ccc(NS(C)(=O)=O)cc1 [93-31 (S), (S)-1-(4-Methanesulphonamidephenoxy)-3-(N-butyl-3,4-dichloro-phenylethylamino)-2-propanol]
Fold increase in potency between pH 7.6 and 6.9 ([1]; Table A): 51.2
IC50 [1, 4]: 58 nM
Fold increase in potency between pH 7.6 and 6.9 ([1]; Table C): 51.2

CS(=O)(=O)Nc1cccc(OC[C@@H](O)CNCCc2ccc(Cl)c(Cl)c2)c1 [93-9 (S), (S)-1-(3-Methanesulphonamidephenoxy)3-(3,4-dichlorophenylcthyl-amino)-2-propanol]
IC50 [1]: 208 nM
Fold increase in potency between pH 7.6 and 6.9 ([1]; Table D): 8.19

CCN(CCc1ccc(Cl)c(Cl)c1)C[C@H](O)COc1ccc(NS(C)(=O)=O)cc1 [93-5 (S), (S)-1-(4-Methanesulphonamidephenoxy)-3-(N-ethyl-3,4-dichloro-phenylethylamino)-2-propanol]
Fold increase in potency between pH 7.6 and 6.9 ([1]; Table A): 8.00
IC50 [1, 4]: 20 nM
Fold increase in potency between pH 7.6 and 6.9 ([1]; Table C): 8.00

NC(=O)N1c2ccccc2C=Cc2ccccc21 [Carbamazepine, reference compound]
THE in drug (% control) ([2]; 40 mg/kg, 30 min from drug injection to electroshock): 0.0 ± 0.0 % control

CS(=O)(=O)Nc1ccccc1OC[C@@H](O)CNCCc1ccc(Cl)c(Cl)c1 [93-32 (S), 1-(2-Methanesulphonamidephenoxy)-3-(3,4-dichlorophenylethylamino)-2-propanol]
IC50 [1]: 17900 nM

CS(=O)(=O)Nc1ccc(OC[C@@H](O)CN(CCc2ccc(Cl)c(Cl)c2)Cc2ccccc2)cc1 [93-30 (S), (S)-1-(4-Methanesulphonamidephenoxy)-3-(N-benzyl-3,4-dichloro-phenylethylamino)-2-propanol]
Fold increase in potency between pH 7.6 and 6.9 ([1]; Table A): 16.8
IC50 [1, 4]: 70 nM
Fold increase in potency between pH 7.6 and 6.9 ([1]; Table C): 16.8

CC(=O)OC(COc1ccc(NS(C)(=O)=O)cc1)CN(CCc1ccc(Cl)c(Cl)c1)C(C)=O [93-28 (S), 1-(4-Methanesulphonamidophenoxy)-3-(N-acetyl-3,4-dichloro-phenylethylamino)-2-propyl acetate]
Fold increase in potency between pH 7.6 and 6.9 ([1]; Table A): 11.1
IC50 [1, 4]: 1640 nM

CS(=O)(=O)Nc1ccc(OC[C@@H](O)CN(CCc2ccc(Cl)c(Cl)c2)Cc2ccccc2F)cc1 [93-35 (S), (S)-1-(4-Methanesulphonamidephenoxy)-3-(N-(2-fluorobenzyl)-3,4-dichlorophenylethylamino)-2-propanol]
Fold increase in potency between pH 7.6 and 6.9 ([1]; Table B): 3.60
IC50 [1, 3]: 48 nM

CN(c1ccc(OC[C@@H](O)CNCCc2ccc(Cl)c(Cl)c2)cc1)S(C)(=O)=O [93-7 (S), (S)-1-(4-N-methyl-methanesulphonamidephenoxy)-3-(3,4-dichloro-phenylethylamino)-2-propanol]
IC50 [1]: 2330 nM
Fold increase in potency between pH 7.6 and 6.9 ([1]; Table D): 5.51

CN(CCc1ccc(Cl)c(Cl)c1)CC(O)COc1ccc(NS(C)(=O)=O)cc1.Cl (racemic) [Compound 93, (R,S) 1-(4-methanesulfonamidophenoxy)-3-(N-methyl-3,4-dichlorophenylethylamine)-2-propanol hydrochloride, reference compound]
Anticonvulsive effects [2]: Anticonvulsive effects
THE in drug (% control) ([2]; 10 mg/kg, 15 min from drug injection to electroshock): 78.2 ± 4.5 % control
THE in drug (% control) ([2]; 10 mg/kg, 30 min from drug injection to electroshock): 58.5 ± 11.3 % control
THE in drug (% control) ([2]; 10 mg/kg, 60 min from drug injection to electroshock): 62.4 ± 3.9 % control
THE in drug (% control) ([2]; 30 mg/kg, 240 min from drug injection to electroshock): 96.2 ± 1.7 % control

O=[N+]([O-])c1ccc(OC[C@@H](O)CNCCc2ccc(Cl)c(Cl)c2)cc1 [93-10 (S), (S)-1-(4-Nitrophenoxy)3-(3,4-dichlorophenylethylamino)-2propanol]
IC50 [1]: 12100 nM
Fold increase in potency between pH 7.6 and 6.9 ([1]; Table D): 1.60

CS(=O)(=O)Nc1ccc(OC[C@@H](O)CNCCc2ccc(Cl)c(Cl)c2)cc1.Cl [93-4 (S), (S)-1-(4-methanesulfonamideophenoxy)-3-(3,4-dichlorophenylethylamine)-2-propanol hydrochloride]
Fold increase in potency between pH 7.6 and 6.9 ([1]; Table B): 3.54
IC50 [1, 3]: 26 nM
Fold increase in potency between pH 7.6 and 6.9 ([1]; Table C): 3.54
Fold increase in potency between pH 7.6 and 6.9 ([1]; Table D): 3.54
IC50 [1, 8]: 26 nM
Anticonvulsive effects [2]: Anticonvulsive effects
THE in drug (% control) ([2]; 3 mg/kg, 15 min from drug injection to electroshock): 91.1 ± 2.7 % control
THE in drug (% control) ([2]; 3 mg/kg, 60 min from drug injection to electroshock): 109 ± 11.5 % control
THE in drug (% control) [2, 5]: 66.6 ± 12.5 % control
THE in drug (% control) [2, 7]: 30.8 ± 12.1 % control
